Holding throughout (format): physicochemical
Series [1] in a line: appearance of the hydrated drug formulation. The settings on record: formulation with docetaxel. As to the method: 3.8 mg of compound 1 was dispensed into a 25 mL round bottom flask and dissolved in methanol (2 mL). 240 μL of a stock solution of docetaxel in methanol (5 mg/mL) was added.
(§1) The solution was evaporated to dryness in a rotary evaporator. Final drying was performed in a desiccator to remove residual solvent. Hydration of the dried film was performed by adding water for injection (1.2 mL). […] Drug loading capacity is defined as the ratio of amount API:(API+excipient).
(§2) 11 mg of example 1 was dispensed into a 25 mL round bottom flask and dissolved in methanol (2 mL). 740 μL of a stock solution of docetaxel in methanol (4.96 mg/mL) was added. The solution was evaporated to dryness in a rotary evaporator. Final drying was performed in a desiccator to remove residual solvent.
(§3) 4.5 mg of compound 1 was dispensed into a 25 mL round bottom flask and dissolved in methanol (2 mL). 1500 μL of a stock solution of cabazitaxel in methanol (1.00 mg/mL) was added. The solution was evaporated to dryness in a rotary evaporator. Final drying was performed in a desiccator to remove residual solvent.
4.5 mg of compound 1 was dispensed into a 25 mL round bottom flask and dissolved in methanol (2 mL). 1500 μL of a stock solution of cyclosporin in methanol (1.00 mg/mL) was added. The solution was evaporated to dryness in a rotary evaporator. Final drying was performed in a desiccator to remove residual solvent. […]
4.5 mg of compound 4 was dispensed into a round bottom flask and dissolved in methanol (3 mL). […] of a stock solution of docetaxel in methanol (4.96 mg/mL) was added. The solution was evaporated to dryness in a rotary evaporator. Final drying was performed in a desiccator (40 min) to remove residual solvent. Rehydration of the dried film was performed by adding 0.9% sodium chloride solution (1.5 mL).

Series [2] can be described thus: micellar particle size and polydispersity index (ZetaSizer, dynamic light scattering) of drug formulations at different dilutions. The settings on record: micelles with docetaxel. On the procedure: The particle size of the micelles in the composition is typically in the range of about 5 to about 150 nm. The particle size may be determined e.g. using Dynamic Light Scattering (DLS) in 0.9% NaCl at 1 mg/mL drug concentration, preferably using a red laser with a wavelength of 633 nm.
Micellar size was measured using a ZetaSizer from Malvern Panalytical. […]
20 mg of example 1 was dispensed into a 25 mL round bottom flask and dissolved in methanol (3 mL). 800 μL of a stock solution of docetaxel in methanol (5 mg/mL) was added. The solution was evaporated to dryness in a rotary evaporator. Final drying was performed in a desiccator to remove residual solvent. Hydration of the dried film was performed by adding water for injection (1.0 mL) to a concentration of 4 mg/mL of docetaxel. The 4 mg/mL concentration was further diluted with 0.9% sodium chloride according to the table below. […]
A serial dilution was performed for the system docetaxel:compound 1. A stock solution of docetaxel in methanol was mixed with a stock solution of the micelle forming agent (compound 1) in a round bottom flask at a weight ratio of 1:5. The mixture was evaporated to dryness in a rotary evaporator. Final drying was performed in a desiccator to remove residual solvent. Hydration of the dried film was performed by adding water for injection (1.0 mL) to a concentration of 1 mg/mL of docetaxel. The resulting solution was filtered through a 0.22 μm sterile filter and further diluted with 0.9% sodium chloride solution.
4.5 mg of compound 1 was dispensed into a 25 mL round bottom flask and dissolved in methanol (2 mL). 1500 μL of a stock solution of cabazitaxel in methanol (1.00 mg/mL) was added. The solution was evaporated to dryness in a rotary evaporator. Final drying was performed in a desiccator to remove residual solvent. […]

Series [3] in a line: particle size and polydispersity index of drug micelles over time (ZetaSizer). The settings on record: docetaxel:compound 1:5, docetaxel 0.5 mg/mL. On the procedure: Micellar size was measured using a ZetaSizer from Malvern Panalytical.
A stock solution of docetaxel in methanol was mixed with a stock solution of compound 1 in a round bottom flask. The mixture was evaporated to dryness in a rotary evaporator. Final drying was performed in a desiccator to remove residual solvent. Hydration of the dried film was performed by adding water for injection (1.0 mL) to a concentration of 1 mg/mL of docetaxel. The resulting solution was filtered through a 0.22 μm sterile filter and further diluted with 0.9% sodium chloride solution to 0.5 mg/mL of docetaxel. […]
A stock solution of cyclosporin in methanol was mixed with a stock solution of compound 1 in a round bottom flask. The mixture was evaporated to dryness in a rotary evaporator. Final drying was performed in a desiccator to remove residual solvent. Hydration of the dried film was performed by adding water for injection (1.0 mL) to a concentration of 1 mg/mL of cyclosporin. The resulting solution was filtered through a 0.22 μm sterile filter and further diluted with 0.9% sodium chloride solution to 0.5 mg/mL of cyclosporin. The final weight ratio of cyclosporin to micelle forming agent was 1:3.
A stock solution of docetaxel in methanol was mixed with a stock solution of compound 3 in a round bottom flask. The mixture was evaporated to dryness in a rotary evaporator. Final drying was performed in a desiccator to remove residual solvent. Hydration of the dried film was performed by adding water for injection (1.0 mL) to a concentration of 1 mg/mL of docetaxel. The resulting solution was filtered through a 0.22 μm sterile filter and further diluted with 0.9% sodium chloride solution to 0.5 mg/mL of Docetaxel. The final weight ratio of docetaxel to micelle forming agent was 1:3.
A stock solution of cyclosporin in methanol was mixed with a stock solution of compound 3 in a round bottom flask. The mixture was evaporated to dryness in a rotary evaporator. Final drying was performed in a desiccator to remove residual solvent. Hydration of the dried film was performed by adding water for injection (1.0 mL) to a concentration of 1 mg/mL of cyclosporin. The resulting solution was filtered through a 0.22 μm sterile filter and further diluted with 0.9% sodium chloride solution to 0.5 mg/mL of cyclosporin. The final weight ratio of cyclosporin to micelle forming agent was 1:3.
A stock solution of docetaxel in methanol was mixed with a stock solution of compound 4 in a round bottom flask. The mixture was evaporated to dryness in a rotary evaporator. Final drying was performed in a desiccator to remove residual solvent. Hydration of the dried film was performed by adding water for injection (1.0 mL) to a concentration of 1 mg/mL of docetaxel. The resulting solution was filtered through a 0.22 μm sterile filter and further diluted with 0.9% sodium chloride solution to 0.5 mg/mL of docetaxel. […]
A stock solution of docetaxel in methanol was mixed with a stock solution of compound 5 in a round bottom flask. The mixture was evaporated to dryness in a rotary evaporator. Final drying was performed in a desiccator to remove residual solvent. Hydration of the dried film was performed by adding water for injection (1.0 mL) to a concentration of 1 mg/mL of docetaxel. The resulting solution was filtered through a 0.22 μm sterile filter and further diluted with 0.9% sodium chloride solution to 0.5 mg/mL of docetaxel. The final weight ratio of docetaxel to micelle forming agent was 1:3.
A stock solution of cabazitaxel in methanol was mixed with a stock solution of compound 5 in a round bottom flask. The mixture was evaporated to dryness in a rotary evaporator. Final drying was performed in a desiccator to remove residual solvent. Hydration of the dried film was performed by adding water for injection (1.0 mL) to a concentration of 1 mg/mL of cabazitaxel. […]

A short description of series [4]: drug loading capacity (ratio of amount API:(API+excipient)). The settings on record: docetaxel 1.25 mg + compound 4.0 mg. As to the method:
as §1
20 mg of example 1 was dispensed into a 25 mL round bottom flask and dissolved in methanol (3 mL). 800 μL of a stock solution of docetaxel in methanol (5 mg/mL) was added. The solution was evaporated to dryness in a rotary evaporator. Final drying was performed in a desiccator to remove residual solvent. Hydration of the dried film was performed by adding water for injection (1.0 mL) to a concentration of 4 mg/mL of docetaxel. The 4 mg/mL concentration was further diluted with 0.9% sodium chloride according to the table below.
as §2, §3
4.5 mg of compound 1 was dispensed into a 25 mL round bottom flask and dissolved in methanol (2 mL). 1500 μL of a stock solution of cyclosporin in methanol (1.00 mg/mL) was added. The solution was evaporated to dryness in a rotary evaporator. Final drying was performed in a desiccator to remove residual solvent.
4.0 mg of compound 2 was dispensed into a 25 mL round bottom flask and dissolved in methanol (3 mL). 250 μL of a stock solution of docetaxel in methanol (5 mg/mL) was added. The solution was evaporated to dryness in a rotary evaporator. Final drying was performed in a desiccator to remove residual solvent. Hydration of the dried film was performed by adding water for injection (1.25 mL). […]
4.5 mg of compound 3 was dispensed into a 25 mL round bottom flask and dissolved in methanol (3 mL). 305 μL of a stock solution of docetaxel in methanol (4.96 mg/mL) was added. The solution was evaporated to dryness in a rotary evaporator. Final drying was performed in a desiccator to remove residual solvent.
4.5 mg of compound 3 was dispensed into a 25 mL round bottom flask and dissolved in methanol (3 mL). […] of a stock solution of docetaxel in methanol (4.96 mg/mL) was added. The solution was evaporated to dryness in a rotary evaporator. Final drying was performed in a desiccator to remove residual solvent.

[5] abbreviates: ratio 3:1, 0.9% NaCl, docetaxel conc. 0.25 mg/mL.
Where [6] appears, read: ratio 3:1, 0.9% NaCl, docetaxel conc. 0.5 mg/mL.
The mark [7] stands for this setting: ratio 3:1, 0.9% NaCl, docetaxel conc. 1 mg/mL.
Where [8] appears, read: 1.25 mg docetaxel + 4.0 mg compound, water 1.25 mL, mixed 1:1 v/v with 0.9% NaCl.

The values below come from patent US20260337156A1, “SOLUBILIZING COMPOUNDS” (Vivesto AB, priority 2022, published 2026).

The structures appear in SMILES notation.

Take `COc1cc(C)c(/C=C/C(C)=C/C=C/C(C)=C/C(=O)N(CC(O)CS(=O)(=O)[O-])C2CCCCC2)c(C)c1C.[Na+]` (stereo not drawn) [Compound 4]: the appearance of formulation entry in series [1] is given as “yellow transparent solution”. For the same compound, the Particle size in series [2] (setting [5]) stood at 8.7 nm; in series [2] (setting [6]), 8.9 nm; in series [2] (setting [7]) it was 8.9 nm; in series [3] (time 0 h), 34.56 nm; in series [3] (time 1 h), 54.37 nm; in series [3] (time 2 h), 56.46 nm. Further, the Particle size in series [3] (time 4 h) was 58.90 nm; in series [3] (time 6 h), 59.79 nm; in series [3] (time 24 h), 78.72 nm. The Polydispersity index amounted to 0.31 in series [2] (setting [5]); 0.25 in series [2] (setting [6]); 0.32 in series [2] (setting [7]); 0.26 in series [3] (time 0 h); 0.14 in series [3] (time 1 h); 0.12 in series [3] (time 2 h). For the same compound, the Polydispersity index in series [3] (time 4 h) stood at 0.11; in series [3] (time 6 h), 0.12; in series [3] (time 24 h), 0.08. The “change of particle size and polydispersity index over time” value in series [3] (0-24 h) is “Increase in the particle size and variations of the polydispersity index over time were noted”.
With `COc1cc(C)c(/C=C/C(C)=C/C=C/C(C)=C/C(=O)N(CCCS(=O)(=O)[O-])C2CCCCC2)c(C)c1C.[Na+]` [Compound 2], in series [1], the appearance of formulation result is “yellow transparent solution”. Also, in series [2] (setting [8]), the Particle size was 17.9 nm and the Polydispersity index is listed as 0.72. For the same compound, the Drug loading capacity in series [4] is 24%.
